Patent US20100048604A1, “Ligands for Aldoketoreductases” (priority 2004, published 2010)

Legend:
AKR1C1-AKR1C4 = assay: Substrate tolerance and selectivity across the four human AKR1C isozymes; format: biochemical; conditions: AKR1C1-AKR1C4, purified enzymes, NADPH
Description: AKR1C2 and AKR1C3 Selective Probes: Probes (5a-5i) were examined as substrates for the four purified human HSD isozymes (AKR1C1-AKR1C4) under standard assay conditions [catalytic quantities of enzyme, an excess of cofactor (NADPH)]. The initial reaction rates were used to derive standard kinetic parameters (kcat and Km, Materials and Methods).
Substrate tolerance of AKR1Cs: Isozyme Activity with 5a-5i: Activity of the second generation of fluorogenic substrates with the AKR1C isozymes was determined as follows. To a STARNA semi-micro fluorimeter cell (with 4 polished windows) was added 100 μL of 1 M potassium phosphate buffer (pH 6), 840 μL doubly deionized water, and 20 μL of 12.5 mM NADPH. After mixing the aqueous components thoroughly, 20 μL of acetonitrile was added as a cosolvent and mixed well. 20 μL of 2.5 mM second generation fluorogenic ketone in acetonitrile (5a-5i) was then added and mixed. 4 μL of undiluted AKR1C (provided generously by the Penning lab at concentrations of 2.5 mg/mL) were then added to the cuvette for a total of 10 μg purified enzyme in the 1 mL assay volume. Fluorescence arising from the respective alcohol reduction product was then monitored over the course of 5-10 minutes.
Binding constant and catalytic rates (Km and kcat) of the second generation of fluorogenic substrates was determined as follows. To a STARNA semi-micro fluorometer cell (with 4 polished windows) was added 100 μL of 1 M potassium phosphate buffer (pH 6), 840 μL doubly deionized water, and 20 AL of 12.5 mM NADPH. After mixing the aqueous components thoroughly, 20 μL of acetonitrile was added as a cosolvent and mixed well. […] Fluorescence arising from the respective alcohol reduction product was then monitored over the course of 3 minutes (Excitation and emission band pass slits both at 4 nm, lamp 700 V, λexc 410 nm, λem 510). The rate of product formation, expressed in units of nanomoles per minute, were calculated according to previously published procedures (Wierzchowski, J.; Dafeldecker, W. P.; Holmquist, B.; Vallee, B. L. Anal. Biochem. 1989, 178, 57-62): […]

AKR1C3 = molecular target: T1, AKR1C3 (Homo sapiens, UniProt P42330); assay: Determination of kinetic parameters for AKR1C3 (fluorogenic substrate 5); format: biochemical
T1 construct: gift of Professor Trevor Penning (University of Pennsylvania School of Medicine)
T1 sequence (P42330 1-323): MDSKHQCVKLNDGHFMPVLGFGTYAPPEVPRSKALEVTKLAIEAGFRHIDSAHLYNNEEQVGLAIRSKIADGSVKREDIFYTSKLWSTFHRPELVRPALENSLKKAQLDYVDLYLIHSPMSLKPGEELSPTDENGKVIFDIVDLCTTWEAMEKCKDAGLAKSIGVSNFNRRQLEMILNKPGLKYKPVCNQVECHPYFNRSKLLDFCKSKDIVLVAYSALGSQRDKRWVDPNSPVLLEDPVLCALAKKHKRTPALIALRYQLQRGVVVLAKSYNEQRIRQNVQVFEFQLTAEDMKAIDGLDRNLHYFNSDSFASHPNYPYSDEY
Experimental: Whether the activity of human enzymes may be imaged by probe 5 was investigated. Type 2 isozyme of 3α-HSD (AKR 1C3) was selected for this study owing to its important physiological role.
Fluorogenic substrate 5 reduction was monitored on a Hitachi F-4500 fluorimeter in Starna quartz cuvettes fluorometrically in 1 mL systems containing 100 mM potassium phosphate pH 6.0 containing excess of NADPH cofactor (250 μM) and various amounts of the substrate (0.1953-50 μM) dissolved in 4% acetonitrile. […] Cuvettes were mixed thoroughly after addition of cofactor, cosolvent, and substrate. Reactions were initiated by the addition of 4 μL of dilute AKR1C3 (115 μg/mL) and were corrected for nonenzymatic rates. All reactions were followed by monitoring the increase in fluorescence of the product alcohol for 5 minutes at λem 510 nm with λex 440 nm (Excitation and emission band pass slits both at 2.5 nm, lamp 900 V) at 37° C. The initial velocities, expressed in units of nanomoles per minute, were calculated according to previously published procedures (Wierzchowski, J.; Dafeldecker, W. P.; Holmquist, B.; Vallee, B. L. Anal. Biochem. 1989, 178, 57-62): initial rate=[nst×(Ft−F0)/(Fst)]/t where Ft and F0 represent the fluorescence at time t and 0, nst is the nanomoles of the product standard, and Fst is the fluorescence resulting from nst of product. Kinetic constants were approximated using the GraFit (Erithacus Software, Surrey, UK) non-linear regression analysis program to fit the untransformed data to a hyperbolic function as originally described (Wilkinson, G. N. Biochem. J. 1961, 80, 324-332), yielding estimated values of kcat, Km, and their associated standard errors.

[1] = 100 mM potassium phosphate pH 6.0, 250 μM NADPH, 37° C.
[2] = Type 2 isozyme of 3α-HSD (AKR 1C3)

CC(=O)c1cc(=O)oc2c3c4c(cc12)CCCN4CCC3 [compound 5, 8-Acetyl-2,3,5,6-tetrahydro-1H,4H-11-oxa-3a-aza-benzo[de]anthracen-10-one]
acceptance as substrate by the four human isozymes (AKR1C1-AKR1C4): all four human isozymes catalyzed the reduction | Kcat (AKR1C3; [1]): 0.1374 s⁻¹ | Km (AKR1C3; [1]): 2.46 µM | Spec. activity (AKR1C3; [1]): 0.226 µmol/min/mg | Vmax (AKR1C3; [1]): 0.1039 nmol/min | Kcat (AKR1C3; [2]): 0.137 s⁻¹ | Km (AKR1C3; [2]): 2.5 µM
